Experimental data reported in ChEMBL document CHEMBL1201862, “PubChem BioAssay data set” (2004).
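Where inhibition never reached the appropriate level, the endpoint shown equals the highest concentration tested. Otherwise, values were interpolated linearly from a five-concentration, 48-hour dose response in 96-well plates. GI50 marks 50% less growth.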 Active and inactive are the calls of the source. Rule as the data show it: active = GI50 up to about 1.1 µM and inactive = higher.

Experiments:
Experiment in all cases: DTP human tumour cell line panel, 48 h
[1] = test system: A498
[2] = test system: ACHN
[3] = test system: CCRF-CEM
[4] = test system: EKVX
[5] = test system: HCC 2998
[6] = test system: HCT-116
[7] = test system: HL-60
[8] = test system: K562
[9] = test system: KM-20L2
[10] = test system: LOX IMVI
[11] = test system: NCI-H460
[12] = test system: OVCAR-5
[13] = test system: RPMI-8226
[14] = test system: SF-268
[15] = test system: SNB-19
[16] = test system: SNB-75
[17] = test system: SR
[18] = test system: TK-10
[19] = test system: OVCAR-3

Measured: GI50

Cc1ccccc1NC(=O)C(=O)C(c1cnc2ccc([N+](=O)[O-])cc2n1)[N+](=O)[O-] (stereo not given)
inactive: [1] > 100 µM | [2] > 100 µM | [3] 25.5 µM | [4] > 100 µM | [5] > 100 µM | [6] > 100 µM | [7] 24.9 µM | [8] 39.1 µM | [9] > 100 µM | [10] > 100 µM | [11] > 100 µM | [12] > 100 µM | [13] 31.7 µM | [14] > 100 µM | [15] > 100 µM | [16] > 100 µM | [17] > 100 µM | [18] > 100 µM

CC(C)(C)OC(=O)N1N=NC2C1C1CC(OCc3ccccc3)(OCc3ccccc3)C2O1 (stereo not given)
inactive: [1] > 100 µM | [2] > 100 µM | [3] 11.2 µM | [5] > 100 µM | [7] 8.02 µM | [8] 20.2 µM | [9] > 100 µM | [10] 18.1 µM | [11] > 100 µM | [19] 30.3 µM | [12] > 100 µM | [13] 14.1 µM | [14] 35.1 µM | [16] 28.1 µM

CC12CC[C@@H](C(C)(C)O)C1[C@@H](O)CC1(C)C2CCC2[C@@]3(C)CC[C@H](O)C(C)(C)C3C(O)C[C@]21C (stereo not given in full)
inactive: [1] 13.5 µM | [2] 13.1 µM | [3] 11.3 µM | [4] 13.2 µM | [5] 16.3 µM | [6] 11.4 µM | [7] 5.27 µM | [8] 11.8 µM | [9] 10 µM | [11] 15.3 µM | [19] 16.8 µM | [12] 17.5 µM | [13] 21.3 µM | [14] 14.9 µM | [15] 21.1 µM | [18] 16.4 µM

CCc1cc(Cc2cc(CC)c(NC(=O)C3=CC(=O)CC(c4ccc(OC)cc4)O3)c(CC)c2Cl)c(Cl)c(CC)c1NC(=O)C1=CC(=O)CC(c2ccc(OC)cc2)O1 (stereo not given)
inactive: [1] 21.7 µM | [2] 17.9 µM | [3] 28.1 µM | [4] 30.5 µM | [5] 16.7 µM | [6] 16.7 µM | [7] 23.2 µM | [8] 32.1 µM | [9] 26.7 µM | [10] 18.1 µM | [11] 17.7 µM | [19] 19.1 µM | [12] 20.7 µM | [13] 15.5 µM | [14] 25.9 µM | [15] 21.4 µM | [16] 20 µM | [17] 22.5 µM | [18] 19.7 µM

N#CC(/C(=N/NC(=O)C(=O)NN)C(=O)Nc1nc([N+](=O)[O-])cs1)c1ccc(Cl)cc1 (stereo not given)
inactive: [2] > 100 µM | [3] 89.5 µM | [4] > 100 µM | [5] > 100 µM | [6] > 100 µM | [7] > 100 µM | [9] > 100 µM | [10] > 100 µM | [11] > 100 µM | [19] > 100 µM | [12] > 100 µM | [13] > 100 µM | [14] > 100 µM | [15] > 100 µM | [16] > 100 µM | [18] > 100 µM

N#C/C1=C(\N)CCSSSC1
inactive: [1] 28.9 µM | [2] 41.7 µM | [3] 48.9 µM | [4] 45.9 µM | [5] 54.8 µM | [6] 40.2 µM | [7] > 10 µM | [8] 55.3 µM | [9] 26.9 µM | [10] 42.4 µM | [11] 23.6 µM | [19] 46.3 µM | [12] 53.1 µM | [13] 44.8 µM | [14] 42.9 µM | [15] 37.2 µM | [16] 42.3 µM | [17] 33.7 µM | [18] > 100 µM

Cc1nnc2n1N=C(c1ccc(-c3ccc([N+](=O)[O-])cc3)o1)CS2
inactive: [2] > 100 µM | [5] > 100 µM | [6] > 100 µM | [7] > 100 µM | [8] > 100 µM | [9] > 100 µM | [10] > 100 µM | [11] > 100 µM | [19] > 100 µM | [12] > 100 µM | [13] > 100 µM | [14] > 100 µM | [15] > 100 µM | [16] > 100 µM | [17] > 100 µM | [18] > 100 µM

O=C(CCc1nnc2s/c(=C\c3ccc([N+](=O)[O-])cc3)c(=O)n12)Nc1ccc(Cl)c(Cl)c1
inactive: [1] 85.3 µM | [2] 36.4 µM | [3] 20.2 µM | [5] 22.3 µM | [6] 32.1 µM | [7] 17.3 µM | [8] 20.3 µM | [9] 47.9 µM | [10] 15.3 µM | [11] 46.1 µM | [19] 13.1 µM | [12] 36.2 µM | [13] 20.6 µM | [14] 18.5 µM | [15] 72.9 µM | [16] 10.4 µM | [18] 34 µM

CC1=C2CCCC2=C/C(=N/Nc2ccc([N+](=O)[O-])cc2[N+](=O)[O-])CC1
inactive: [2] > 100 µM | [3] > 100 µM | [4] > 100 µM | [6] > 100 µM | [7] > 100 µM | [8] > 100 µM | [9] > 100 µM | [10] > 100 µM | [11] > 100 µM | [19] > 100 µM | [12] > 100 µM | [13] > 100 µM | [14] > 100 µM | [15] > 100 µM | [16] 45.2 µM | [17] > 100 µM | [18] > 100 µM

O=C(O)c1cc(-c2ccccc2O)nc2ccccc12
inactive: [1] > 100 µM | [2] > 100 µM | [3] > 100 µM | [4] > 100 µM | [5] > 100 µM | [6] > 100 µM | [8] > 100 µM | [9] > 100 µM | [11] > 100 µM | [19] > 100 µM | [12] > 100 µM | [13] > 100 µM | [14] > 100 µM | [15] > 100 µM | [16] > 100 µM | [18] > 100 µM

CC(=O)Nc1ccccc1[S+]([O-])c1ccccc1 (stereo not given)
inactive: [1] > 100 µM | [2] > 100 µM | [3] > 100 µM | [4] > 100 µM | [5] > 100 µM | [6] > 100 µM | [7] > 100 µM | [8] > 100 µM | [9] > 100 µM | [10] > 100 µM | [11] > 100 µM | [19] > 100 µM | [12] 4.21 µM | [13] > 100 µM | [14] > 100 µM | [15] > 100 µM | [16] > 100 µM | [18] > 100 µM

CCOC(=O)C(=O)Nc1nc2c(OCC)cccc2s1
inactive: [1] > 100 µM | [2] > 100 µM | [4] > 100 µM | [5] > 100 µM | [6] > 100 µM | [7] > 100 µM | [8] > 100 µM | [9] > 100 µM | [10] > 100 µM | [11] > 100 µM | [19] > 100 µM | [12] > 100 µM | [13] > 100 µM | [14] > 100 µM | [15] > 100 µM | [16] > 100 µM | [18] > 100 µM

O=C(Nc1cccc(NC(=O)c2cc(=O)c3ccccc3o2)n1)c1cc(=O)c2ccccc2o1
inactive: [1] 75.5 µM | [2] 8.32 µM | [3] 42.2 µM | [4] 57.4 µM | [5] 60.1 µM | [6] 27.1 µM | [7] 32.3 µM | [8] 5.46 µM | [9] 68.4 µM | [10] 6.1 µM | [11] 40.4 µM | [19] 37.6 µM | [12] > 100 µM | [13] 23.3 µM | [14] 13.5 µM | [15] 68.9 µM | [16] 38.8 µM | [18] > 100 µM

COc1ccc(CNc2nc3ccccc3nc2-c2cccs2)cc1OC
inactive: [2] 23.1 µM | [3] 33.3 µM | [4] 59 µM | [5] 30.8 µM | [6] 33.5 µM | [7] 22 µM | [8] 59.4 µM | [9] 68.4 µM | [11] 20.8 µM | [19] 51.3 µM | [12] > 100 µM | [13] 72.3 µM | [14] 47.4 µM | [15] > 100 µM | [17] 15.5 µM | [18] 74 µM

Cc1ccc(C(=O)NC(C)C)cc1/N=N/N(C)C
inactive: [2] > 100 µM | [4] > 100 µM | [5] > 100 µM | [6] > 100 µM | [9] > 100 µM | [10] > 100 µM | [11] > 100 µM | [19] > 100 µM | [14] > 100 µM | [15] > 100 µM | [18] > 100 µM

CCOC(=O)CC1NC(=O)CS1 (stereo not given)
inactive: [1] > 100 µM | [2] > 100 µM | [3] > 100 µM | [4] > 100 µM | [5] > 100 µM | [6] 21.7 µM | [7] > 100 µM | [8] 80.4 µM | [9] > 100 µM | [11] 60.4 µM | [19] > 100 µM | [12] > 100 µM | [13] 26.8 µM | [14] 49.7 µM | [15] > 100 µM | [16] > 100 µM | [18] > 100 µM
